pIC50: −log10 of the molar value.
What was measured:
[1] = target: T1, MLC kinase (myosin light-chain kinase) (Gallus gallus, UniProt P11799); assay: inhibition of MLC kinase, in vitro enzyme test (32P phosphate incorporation); format: biochemical, chicken (stomach); conditions: for pIC50: 1 nM MLC kinase, 250 μM ATP, pH 7.2, 20 minutes at 30° C., read-out: inhibition of the protein kinases, MLC-kinase IC50; for MLC kinase inhibition, in words: potency and selectivity vs protein kinase C; for ratio of IC50 C-kinase/IC50 MLC-kinase: selectivity factor calculated from the IC50 values
T1 construct: MLC kinase was purified from chicken stomach; from tissue; host or cells: chicken stomach (gizzard smooth muscle)

protein kinase C = assay: inhibition of protein kinase C, enzyme test; format: biochemical; conditions: read-out: inhibition of the protein kinases, C-kinase IC50
Experimental: In order to ascertain whether it is a question of a selective inhibition of MLC kinase, the compounds were also investigated in other enzyme tests for protein kinase, including tests for protein kinase C. The results from the PKC test are also given in the following Table I. Furthermore, the Table contains selectivity factors which were calculated by the determination of the ratios of the IC50 values.

[2] = test system: narcotised, spontaneously hypertensive rat (SHR); assay: anti-hypertensive action in narcotised spontaneously hypertensive rats, i.v.; format: in vivo; conditions: for reduction of the average arterial blood pressure / reduction of the heart frequency: 60 minutes after administration, average ± SD
Experimental: As test model, there was used the narcotised, spontaneously hypertensive rat (SHR). After intravenous administration of the inhibitor of MLC kinase, in each case 60 minutes after the administration of the compound, there were found the reductions of the average arterial blood pressure set out in the following Table 2.

T1 sequence (P11799 935-1906): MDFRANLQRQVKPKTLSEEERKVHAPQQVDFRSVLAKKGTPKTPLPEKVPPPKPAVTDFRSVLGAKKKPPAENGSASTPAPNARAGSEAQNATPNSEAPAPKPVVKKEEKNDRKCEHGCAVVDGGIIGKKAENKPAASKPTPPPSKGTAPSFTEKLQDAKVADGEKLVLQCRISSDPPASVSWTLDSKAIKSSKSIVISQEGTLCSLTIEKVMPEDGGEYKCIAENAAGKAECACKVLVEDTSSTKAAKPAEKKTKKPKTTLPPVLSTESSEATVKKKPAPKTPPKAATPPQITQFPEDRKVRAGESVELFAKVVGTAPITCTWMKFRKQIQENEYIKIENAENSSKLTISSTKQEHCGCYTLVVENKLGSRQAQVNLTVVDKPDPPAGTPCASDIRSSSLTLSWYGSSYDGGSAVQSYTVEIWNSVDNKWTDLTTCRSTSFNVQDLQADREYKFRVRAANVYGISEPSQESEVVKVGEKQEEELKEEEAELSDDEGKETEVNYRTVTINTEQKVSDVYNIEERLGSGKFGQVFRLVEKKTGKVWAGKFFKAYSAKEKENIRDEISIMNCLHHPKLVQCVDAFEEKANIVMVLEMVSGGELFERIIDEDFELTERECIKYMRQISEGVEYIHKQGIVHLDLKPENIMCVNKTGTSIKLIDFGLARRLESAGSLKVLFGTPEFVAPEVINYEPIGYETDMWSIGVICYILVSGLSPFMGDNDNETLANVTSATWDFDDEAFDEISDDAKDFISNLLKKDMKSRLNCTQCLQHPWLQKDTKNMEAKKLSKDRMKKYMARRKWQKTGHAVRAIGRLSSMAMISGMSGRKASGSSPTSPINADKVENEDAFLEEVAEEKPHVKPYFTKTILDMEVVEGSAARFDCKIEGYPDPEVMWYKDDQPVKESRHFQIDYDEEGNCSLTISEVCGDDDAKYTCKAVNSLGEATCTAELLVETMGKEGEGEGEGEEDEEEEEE

pIC50 [1]	ratio of IC50 C-kinase/IC50 MLC-kinase [1]	pIC50 (protein kinase C)	Compound	MLC kinase inhibition, in words [1]	reduction of the average arterial blood pressure ([2]; 3 mg/kg i.v.)	reduction of the heart frequency ([2]; 3 mg/kg i.v.)	reduction of the average arterial blood pressure ([2]; 10 mg/kg i.v.)	reduction of the heart frequency ([2]; 10 mg/kg i.v.)	anti-hypertensive action, in words ([2]; i.v.)	influencing of the heart frequency, in words ([2]; i.v.)
7.68	2.5	7.28	CC(C)NCCCn1c2ccccc2c2c3c(c4c5ccccc5n(C)c4c21)C(=O)NC3=O [Example 4c, 13-(3-isopropylaminopropyl)-6,7,12,13-tetrahydro-13-methyl-5,7-dioxo-5H-indolo[2,3-a]pyrrolo[3,4-c]-carbazole]							
8.06	> 1149	< 5.00	COc1ccc2[nH]c3c(c4c(c5c6cc(OC)ccc6n(C)c35)C(=O)NC4=O)c2c1 [Example 7b, 6,7,12,13-tetrahydro-3,9-dimethoxy-12-methyl-5,7-dioxo-5H-indolo[2,3-a]pyrrolo[3,4-c]carbazole]	potent and selective inhibitors of MLC kinase						
6.22	> 17	< 5.00	Cc1ccc2[nH]c3c4[nH]c5ccc(C)cc5c4c4c(c3c2c1)C(=O)NC4=O [Example 11e, 6,7,12,13-tetrahydro-3,9-dimethyl-5,7-dioxo-5H-indolo[2,3-a]pyrrolo[3,4-c]carbazole]							
7.21	0.6	7.46	CC(CC#N)n1c2ccccc2c2c3c(c4c5ccccc5n(C)c4c21)C(=O)NC3=O (stereo not shown) [Example 1d, 12-(3-cyano-2-propyl)-6,7,12,13-tetrahydro-13-methyl-5,7-dioxo-5H-indolo[2,3-a]pyrrolo[3,4-c]carbazole]							
7.21	7.2	6.36	COc1ccc2c(c1)c1c3c(c4c5ccccc5n(C)c4c1n2CCCN(C)C)C(=O)NC3=O [Example 1k, 13-(3-Dimethylaminopropyl)-6,7,12,13-tetrahydro-3-methoxy-12-methyl-5,1-dioxo-5H-indolo[2,3-a]pyrrolo-[3,4-c]carbazole]							
7.07	47	5.40	O=C1NC(=O)c2c1c1c3ccccc3[nH]c1c1[nH]c3cc(Cl)ccc3c21 [Example 11c, 2-chloro-6,7,12,13-tetrahydro-5,7-dioxo-5H-indolo[2,3-a]pyrrolo[3,4-c]carbazole]	potent and selective inhibitors of MLC kinase						
8.82	23	7.47	COc1ccc2c(c1)c1c3c(c4c5cc(Cl)ccc5n(CCCN)c4c1n2C)C(=O)NC3=O [Example 4b, 13-(3-aminopropyl)-3-chloro-6,7,12,13-tetrahydro-9-methoxy-12-methyl-5,7-dioxo-5H-indolo[2,3-a]pyrrolo-[3,4-c]carbazole]	potent and selective inhibitors of MLC kinase						
7.62	1	7.62	COc1ccc2c(c1)c1c3c(c4c5ccccc5n(CCCC#N)c4c1n2C)C(=O)NC3=O [Example 1h, 12-(3-cyanopropyl)-6,7,12,13-tetrahydro-3-methoxy-13-methyl-5,7-dioxo-5H-indolo[2,3-a]pyrrolo[3,4-c]-carbazole]							
6.77	2.9	6.30	CCN(CC)CC(O)Cn1c2ccccc2c2c3c(c4c5ccccc5[nH]c4c21)C(=O)NC3=O (racemic) [Example 6, (±)-12-(3-Diethylamino-2-hydroxy-1-propyl)-6,7,12,13-tetrahydro-5,7-dioxo-5H-indolo[2,3-a]pyrrolo[3,4-c]-carbazole]							
8.14	7.2	7.28	CN(C)CCn1c2ccccc2c2c3c(c4c5ccccc5n(C)c4c21)C(=O)NC3=O [Example 1x, 12-(2-dimethylaminoethyl)-6,7,12,13-tetrahydro-13-methyl-5,7-dioxo-5H-indolo[2,3-a]pyrrolo[3,4-c]carbazole]							
7.26	0.7	7.42	Cn1c2ccccc2c2c3c(c4c5ccccc5n(CCC#N)c4c21)C(=O)NC3=O [Example 1a, 12-(2-cyanoethyl)-6,7,12,13-tetrahydro-13-methyl-5,7-dioxo-5H-indolo[2,3-a]pyrrolo[3,4-c]carbazole]							
7.40	9.5	6.42	COc1ccc2[nH]c3c(c4c(c5c6cc(OC)ccc6n(CCCN(C)C)c35)C(=O)NC4=O)c2c1 [Example 7, 12-(3-Dimethylaminopropyl)-6,7,12,13-tetrahydro-3,9-dimethoxy-5,7-dioxo-5H-indolo[2,3-a]pyrrolo[3,4-c]-carbazole]							
6.27	8.7	5.33	COc1ccc2c3c4c(c5c6ccccc6n(C)c5c3n(CCC#N)c2c1)C(=O)NC4=O [Example 1u, 13-(2-cyanoethyl)-6,7,12,13-tetrahydro-2-methoxy-12-methyl-5,7-dioxo-5H-indolo[2,3-a]pyrrolo[3,4-c]-carbazole]							
7.48	0.7	7.62	COc1ccc2c(c1)c1c3c(c4c5cc(OC)c(OC)cc5n(CCC#N)c4c1n2C)C(=O)NC3=O [Example 1s, 13-(2-cyanoethyl)-6,7,12,13-tetrahydro-2,3,9-trimethoxy-12-methyl-5,7-dioxo-5H-indolo[2,3-a]pyrrolo-[3,4-c]carbazole]							
7.70	1.3	7.59	COc1cc2c3c4c(c5c6ccccc6n(C)c5c3n(CCCN(C)C)c2cc1OC)C(=O)NC4=O [Example 1z, 13-(3-dimethylaminopropyl)-6,7,12,13-tetrahydro-2,3-dimethoxy-12-methyl-5,7-dioxo-5H-indolo[2,3-a]-pyrrolo[3,4-c]carbazole]							
6.92	0.033	8.40	COc1ccc2c(c1)c1c3c(c4c5ccccc5n(C)c4c1n2CC(O)CN(C)C)C(=O)NC3=O (racemic) [Example 10b, (±)-13-(3-dimethylamino-2-hydroxy-1-propyl)-6,7,12,13-tetrahydro-3-methoxy-12-methyl-5,7-dioxo-5H-indolo[2,3-a]pyrrolo[3,4-c]carbazole]							
7.22	4.7	6.55	COc1ccc2[nH]c3c4[nH]c5ccccc5c4c4c(c3c2c1)C(=O)NC4=O [Example 11b, 6,7,12,13-tetrahydro-3-methoxy-5,7-dioxo-5H-indolo[2,3-a]pyrrolo[3,4-c]carbazole]							

Compound	pIC50 [1]	ratio of IC50 C-kinase/IC50 MLC-kinase [1]	pIC50 (protein kinase C)	MLC kinase inhibition, in words [1]	reduction of the average arterial blood pressure ([2]; 3 mg/kg i.v.)	reduction of the heart frequency ([2]; 3 mg/kg i.v.)	reduction of the average arterial blood pressure ([2]; 10 mg/kg i.v.)	reduction of the heart frequency ([2]; 10 mg/kg i.v.)	anti-hypertensive action, in words ([2]; i.v.)	influencing of the heart frequency, in words ([2]; i.v.)
COc1ccc2[nH]c3c4[nH]c5ccc(OC)cc5c4c4c(c3c2c1)C(=O)NC4=O [Example 11d, 6,7,12,13-tetrahydro-3,9-dimethoxy-5,7-dioxo-5H-indolo[2,3-a]pyrrolo[3,4-c]carbazole]	7.68	> 476	< 5.00	potent and selective inhibitors of MLC kinase	16 ± 3%	6 ± 2%	35 ± 5%	10 ± 3%	dosage-dependent anti-hypertensive action could be demonstrated	scarcely observable

— US5945440A, “Indolocarbazole imides and the use thereof” (priority 1992, dated 1999)
